Converted amounts (≈) assume the structure as drawn.
What was measured:
[1] = system: idiopathic pulmonary fibrosis; details: Palmer et al. Chest 2018; cited from earlier work
[2] = Dynamic Vapor Sorption (DVS); format: physicochemical
Experimental: Moisture sorption/desorption isotherms are recorded on a DVS-1 from SURFACE MEASUREMENT SYSTEMS. Two cycles are run at 25° C., in which the Relative Humidity (RH) is stepped from 0 to 95% and back to 0%. The data is evaluated with the software DVSWin V. 2.15.

[3] = Solubility of the different polymorphs in phosphate buffer; format: physicochemical; details: for solubility, concentration versus time: pH 7.4 phosphate buffer, 25° C.; for equilibrium solubility relative to Form 1: 24 hours
Experimental: The solubility of the different polymorphs was determined at pH 7.4 in phosphate buffer at 25° C. Samples were analyzed as a function of time for each form to determine the equilibrium values. The residual solids from each sample were analyzed to verify that the form was unchanged during the experiment. The concentration (mg/mL) versus time data is listed below for each form: […]

[4] = Physical stability of solid state forms, examined by FTIR; format: physicochemical; details: 80° C./75% RH, 1 week (7 days), open glass vials
Experimental: The physical stability of Forms 1, 2, and 3 was investigated at 80° C./75% RH in order to determine if interconversion was observed. The samples were examined by FTIR after stressing 1 week in open glass vials.

Structure (SMILES) | rate of decline in forced vital capacity (FVC) compared with placebo [1] | Reversible water uptake ([2]; 25° C.) | Reversible water uptake ([2]; between 0 and 95% RH) | solubility, concentration versus time ([3]; 1 hr) | solubility, concentration versus time ([3]; 2 hr) | solubility, concentration versus time ([3]; 3 hr) | changes in FTIR spectrum (physical stability, interconversion) [4] | 24 hour solubility result, greater than Form 1 ([3]; 24 hour) | equilibrium solubility relative to Form 1 [3]
Cc1noc(-c2ccc(-c3ccc(C4(C(=O)O)CC4)cc3)cc2)c1NC(=O)O[C@H](C)c1ccccc1 [BMS-986020] | significantly slowed | – | – | – | – | – | – | – | –
COc1ccc(C(=O)NC2(C(=O)O)Cc3ccccc3C2)cc1OCCc1cccc(C)c1 [Form 1, 2-(4-methoxy-3-(3-methylphenethoxy)benzamido)-2,3-dihydro-1H-indene-2-carboxylic acid] | – | less than 1% | ~ −0.1 % w/w | 42 µg/mL (≈ 94.3 µM) | 41 µg/mL (≈ 92 µM) | 42 µg/mL (≈ 94.3 µM) | unchanged FTIR | – | –
COc1ccc(C(=O)NC2(C(=O)O)Cc3ccccc3C2)cc1OCCc1cccc(C)c1 [Form 2, 2-(4-methoxy-3-(3-methylphenethoxy)benzamido)-2,3-dihydro-1H-indene-2-carboxylic acid] | – | – | – | 34 µg/mL (≈ 76.3 µM) | 39 µg/mL (≈ 87.5 µM) | 43 µg/mL (≈ 96.5 µM) | unchanged FTIR | more than 30% | –
COc1ccc(C(=O)NC2(C(=O)O)Cc3ccccc3C2)cc1OCCc1cccc(C)c1 [Form 3, 2-(4-methoxy-3-(3-methylphenethoxy)benzamido)-2,3-dihydro-1H-indene-2-carboxylic acid] | – | – | – | 83 µg/mL (≈ 186 µM) | 93 µg/mL (≈ 209 µM) | 95 µg/mL (≈ 213 µM) | unchanged FTIR | – | more than double
COc1ccc(C(=O)NC2(C(=O)O)Cc3ccccc3C2)cc1OCCc1cccc(C)c1 [Form 4, 2-(4-methoxy-3-(3-methylphenethoxy)benzamido)-2,3-dihydro-1H-indene-2-carboxylic acid] | – | – | – | 79 µg/mL (≈ 177 µM) | 89 µg/mL (≈ 200 µM) | 105 µg/mL (≈ 236 µM) | – | – | more than double
